Assay results as given in ChEMBL document CHEMBL1136535, “Unexpected inhibition of S-adenosyl-L-homocysteine hydrolase by a guanosine nucleoside” (Bioorg Med Chem Lett, 2003).

Target: Adenosylhomocysteinase (Homo sapiens) (UniProt P23526)
Experiment: Enzyme catalytic rate kinetic constant for S-adenosyl-L-homocysteine hydrolase; Not a substrate

Chain of Adenosylhomocysteinase (Homo sapiens) (P23526 2-432 limits assumed): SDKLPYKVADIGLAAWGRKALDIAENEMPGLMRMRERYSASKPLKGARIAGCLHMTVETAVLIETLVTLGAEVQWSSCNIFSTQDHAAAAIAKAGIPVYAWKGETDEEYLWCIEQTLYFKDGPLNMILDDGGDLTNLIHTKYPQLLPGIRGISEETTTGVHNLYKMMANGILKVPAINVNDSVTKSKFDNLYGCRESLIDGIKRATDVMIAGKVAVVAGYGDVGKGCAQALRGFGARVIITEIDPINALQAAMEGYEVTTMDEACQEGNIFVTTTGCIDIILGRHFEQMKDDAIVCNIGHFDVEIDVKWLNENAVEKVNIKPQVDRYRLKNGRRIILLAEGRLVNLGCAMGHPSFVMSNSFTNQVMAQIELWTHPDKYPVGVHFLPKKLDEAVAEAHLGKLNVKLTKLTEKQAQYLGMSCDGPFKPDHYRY

Nc1nc(O)cc(-c2cncn2C2O[C@H](CO)[C@@H](O)[C@H]2O)n1 (stereo partly specified)
k cat: Not a substrate
